The source of these data is BindingDB's records for doi:10.7270/Q28G8J4C (Broad Institute, 2009).

Counter-ions that a name gives are not always drawn. A value given as a limit tells only on which side of the number the result lay.

In this test the target is T1, POsterior Segregation (Caenorhabditis elegans, UniProt G5EF15).
T1 sequence (G5EF15 whole entry): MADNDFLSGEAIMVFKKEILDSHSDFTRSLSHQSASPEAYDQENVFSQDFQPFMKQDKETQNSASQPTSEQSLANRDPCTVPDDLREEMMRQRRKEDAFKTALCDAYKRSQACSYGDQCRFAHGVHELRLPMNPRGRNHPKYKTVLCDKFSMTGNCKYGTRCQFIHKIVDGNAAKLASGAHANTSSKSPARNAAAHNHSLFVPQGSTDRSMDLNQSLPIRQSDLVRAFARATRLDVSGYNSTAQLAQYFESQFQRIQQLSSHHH
Put plainly: inhibitors of POS-1/mex-3 RNA binding, dose response, biochemical, fluorescence polarization (AID 1964).
As a reminder, the EC50 is the midpoint of the concentration-response curve. In the case of `Fc1ccc(C2=Nc3ncnn3C(c3ccco3)C2)cc1` (stereo unspecified) [5-(4-fluorophenyl)-7-(2-furanyl)-1,7-dihydro-[1,2,4]triazolo[1,5-a]pyrimidine], a half-maximal effect (EC50) was put at 14.7 µM. Then `NC(=NNC=c1ccc(=C2C=CC(=O)C(C(=O)O)=C2)o1)N[N+](=O)[O-]` [5-(5-{2-[amino(nitroimino)methyl]carbonohydrazonoyl}-2-furyl)-2-hydroxybenzoic acid], with 29.9 µM. Then `c1ccc(C2=Nc3nnnn3C(c3cccs3)C2)cc1` (stereo unspecified) [5-Phenyl-7-thiophen-2-yl-4,7-dihydro-tetrazolo[1,5-a]pyrimidine], with greater than 300 µM; and `COc1cc(CN=Nc2[nH]c(=O)nnc2C)ccc1O` [5-[2-[(E)-(3-methoxy-4-oxocyclohexa-2,5-dien-1-ylidene)methyl]hydrazinyl]-6-methyl-2H-1,2,4-triazin-3-one], with 56.8 µM; and `COC1=CC(CN=Nc2[nH]c(=O)nnc2C)C=C([N+](=O)[O-])C1=O` (stereo unspecified) [5-[[(E)-(3-methoxy-5-nitro-4-oxo-1-cyclohexa-2,5-dienylidene)methyl]hydrazo]-6-methyl-2H-1,2,4-triazin-3-one], with 7.98 µM. Consider `O=C1N=c2ccc(Br)cc2=C1NNc1nnn[nH]1` [5-bromanyl-3-[2-(2H-1,2,3,4-tetrazol-5-yl)hydrazinyl]indol-2-one], for which it took 14 µM to reach a half-maximal effect (EC50). Then `Cc1ncc(C=O)c(CNNC(=O)c2cc(Br)ccc2O)c1O` [5-bromanyl-N'-[(Z)-[5-(hydroxymethyl)-2-methyl-3-oxidanylidene-pyridin-4-ylidene]methyl]-2-oxidanyl-benzohydrazide], with greater than 300 µM; and `Cc1cccc(NNC2=c3cc(Br)ccc3=NC2=O)c1` [5-bromo-3-[2-(3-methylphenyl)hydrazinyl]indol-2-one], with 68.3 µM; and `Cc1ccc(N/N=C2/C(=O)Nc3ccc(F)cc32)cc1` [5-fluoro-3-[2-(4-methylphenyl)hydrazono]indolin-2-one], with greater than 300 µM.

`COc1cccc(C2C3CN(C)CCC3=C(C#N)C(=N)C2(C#N)C#N)c1OC` (stereo unspecified) [6-Amino-8-(2,3-dimethoxy-phenyl)-2-methyl-2,3,8,8a-tetrahydro-1H-isoquinoline-5,7,7-tricarbonitrile] showed an EC50 of 2.18 µM. `CCCN1CCC2=C(C#N)C(=N)C(C#N)(C#N)C(c3cc(OC)ccc3OC)C2C1` (stereo unspecified) [6-Amino-8-(2,5-dimethoxy-phenyl)-2-propyl-2,3,8,8a-tetrahydro-1H-isoquinoline-5,7,7-tricarbonitrile] registered a concentration giving a half-maximal response (EC50) of 27.9 µM.

For the compound `N#CC1=C2CCOCC2C(c2cccnc2)C(C#N)(C#N)C1=N` (stereo unspecified) [6-Amino-8-pyridin-3-yl-8,8a-dihydro-1H,3H-isochromene-5,7,7-tricarbonitrile], the EC50 was greater than 300 µM.

The compound `O=C(Cc1nc2cc([N+](=O)[O-])ccc2[nH]c1=O)c1ccccc1` [6-Nitro-3-(2-oxo-2-phenyl-ethylidene)-3,4-dihydro-1H-quinoxalin-2-one] displayed an EC50 of 20.1 µM. Then `CN1CCC2=C(C#N)C(=N)C(C#N)(C#N)C(c3ccncc3)C2C1` (stereo unspecified) [6-amino-2-methyl-8-(4-pyridyl)-1,3,8,8a-tetrahydroisoquinoline-5,7,7-tricarbonitrile], with 52.9 µM; and `CCOC(=O)C1=C(C)OC(=N)C(C#N)C1c1ccc(O)c(OC)c1` (stereo unspecified) [6-amino-5-cyano-4-(4-hydroxy-3-methoxyphenyl)-2-methyl-4H-pyran-3-carboxylic acid ethyl ester], with greater than 300 µM.

The compound `CN1CCC2=C(C#N)C(=N)C(C#N)(C#N)C(c3cccc(Cl)c3Cl)C2C1` (stereo unspecified) [6-azanyl-8-[2,3-bis(chloranyl)phenyl]-2-methyl-1,3,8,8a-tetrahydroisoquinoline-5,7,7-tricarbonitrile] yielded an EC50 of 14.4 µM. To `CCC(C)N1C(=O)C(=CNNc2nc3c(c(=O)n(C)c(=O)n3C)n2C)C(=O)NC1=S` (stereo unspecified) [8-[2-[(Z)-(1-butan-2-yl-4,6-dioxo-2-sulfanylidene-1,3-diazinan-5-ylidene)methyl]hydrazinyl]-1,3,7-trimethylpurine-2,6-dione] belongs greater than 300 µM; to `O=NC1CC2(CC(N=O)C1N=O)OCCO2` (stereo unspecified) [9-(hydroxyamino)-8-nitroso-1,4-dioxaspiro[4.5]dec-8-en-7-one oxime], greater than 300 µM.

Regarding `Cc1ccc(N=CC2Sc3ccccc3NC2=O)cc1` (stereo unspecified) [(2E)-2-(p-toluidinomethylene)-4H-1,4-benzothiazin-3-one], the EC50 is greater than 300 µM.

In turn, `CN(C)[C@@H]1C(=O)C(C(N)=O)C(=O)[C@@]2(O)C(=O)C3C(=O)c4c(O)cccc4[C@@](C)(O)[C@H]3[C@H](O)[C@@H]12` (stereo partly drawn) [(2E,4S,4aR,5S,5aR,6S,12aS)-2-[azanyl(oxidanyl)methylidene]-4-(dimethylamino)-6-methyl-5,6,10,11,12a-pentakis(oxidanyl)-4,4a,5,5a-tetrahydrotetracene-1,3,12-trione] yielded an EC50 of 65.8 µM. To `COc1ccc(C=C2CCCC(C(=O)C(F)(F)F)C2=O)cc1OC` (stereo unspecified) [(2E,6Z)-2-(3,4-dimethoxybenzylidene)-6-(2,2,2-trifluoro-1-hydroxyethylidene)cyclohexanone] belongs greater than 300 µM; to `CN(C)c1ccc(O)c2c1CC1CC3C(N(C)C)C(=O)C(C(N)=O)C(=O)[C@@]3(O)C(=O)C1C2=O` (stereo partly drawn) [(2E,12aS)-2-[azanyl(oxidanyl)methylidene]-4,7-bis(dimethylamino)-10,11,12a-tris(oxidanyl)-4a,5,5a,6-tetrahydro-4H-tetracene-1,3,12-trione;hydrochloride], greater than 300 µM.

In turn, `N#CC(C(=O)c1cc2ccccc2o1)c1nc2ccccc2s1` (stereo unspecified) [(2Z)-3-(1-benzofuran-2-yl)-2-(3H-1,3-benzothiazol-2-ylidene)-3-oxidanylidene-propanenitrile] showed an EC50 greater than 300 µM. Then `C=c1cc(O)c(CN(C)C)c2oc(=Cc3ccco3)c(O)c12` [(2Z)-7-[(dimethylamino)methyl]-2-(furan-2-ylmethylidene)-6-hydroxy-4-methyl-1-benzofuran-3-one], with 32.1 µM; and `C[C@H]1c2cccc(O)c2C(=O)C2C(=O)[C@]3(O)C(=O)C(C(N)=O)C(=O)[C@@H](N(C)C)C3C(O)C21` (stereo partly drawn) [(2Z,4S,5S,6R,12aS)-2-[amino(hydroxy)methylidene]-4-(dimethylamino)-5,10,11,12a-tetrahydroxy-6-methyl-4a,5,5a,6-tetrahydro-4H-tetracene-1,3,12-trione;ethanol;hydrate;hydrochloride], with greater than 300 µM. Then `Cn1c2cc(=N)ccc-2c2ccc(N)cc2c1-c1ccccc1` [(3-amino-5-methyl-6-phenyl-phenanthridin-5-ium-8-yl)amine;bromide], with 13.5 µM. Then `O=C1N=c2ccccc2=C1NNc1cccc(Cl)c1` [(3E)-1H-indole-2,3-dione 3-[(3-chlorophenyl)hydrazone]], with 125 µM. The compound `Cc1ccc2oc(=O)c(CC(=O)CC(C)C)nc2c1` [(3Z)-3-(2-keto-4-methyl-pentylidene)-6-methyl-4H-1,4-benzoxazin-2-one] had a concentration for a half-maximal effect (EC50) greater than 300 µM. The compound `COc1ccc(C(=O)CC2=NCC3c4ccccc4CCN3C2=O)cc1` (stereo unspecified) [(3Z)-3-[2-(4-methoxyphenyl)-2-oxidanylidene-ethylidene]-2,6,7,11b-tetrahydro-1H-pyrazino[2,1-a]isoquinolin-4-one] showed an EC50 greater than 300 µM. Then `Cc1ccc(C(=O)Cc2nc3ccccc3oc2=O)cc1` [(3Z)-3-[2-(4-methylphenyl)-2-oxidanylidene-ethylidene]-4H-1,4-benzoxazin-2-one], with greater than 300 µM; and `Cc1ccc2oc(=O)c(CC(=O)c3cccs3)nc2c1` [(3Z)-3-[2-keto-2-(2-thienyl)ethylidene]-6-methyl-4H-1,4-benzoxazin-2-one], with 21.3 µM; and `Cc1ccc(C(=O)Cc2nc3cc(C)ccc3oc2=O)cc1` [(3Z)-3-[2-keto-2-(p-tolyl)ethylidene]-6-methyl-4H-1,4-benzoxazin-2-one], with 7.64 µM. Then `Cc1ccc(NC=C2SC(=O)c3ccccc32)c(C)c1` [(3Z)-3-[(2,4-dimethylanilino)methylene]isobenzothiophen-1-one], with greater than 300 µM. Then `O=C(Cc1nc2ccccc2n(-c2ccccc2)c1=O)c1ccccc1` [(3Z)-3-phenacylidene-1-phenyl-4H-quinoxalin-2-one], with 78.2 µM.

`O=C(Cc1nc2cc(Cl)ccc2oc1=O)c1cccs1` [(3Z)-6-chloranyl-3-(2-oxidanylidene-2-thiophen-2-yl-ethylidene)-4H-1,4-benzoxazin-2-one] came in with an EC50 of 230 µM. The compound `O=C(Cc1nc2cc(Cl)ccc2oc1=O)c1ccco1` [(3Z)-6-chloranyl-3-[2-(furan-2-yl)-2-oxidanylidene-ethylidene]-4H-1,4-benzoxazin-2-one] gave an EC50 greater than 300 µM. Then `Cc1c(NC=C2C(=O)N(C)C(=O)c3ccccc32)c(=O)n(-c2ccccc2)n1C` [(4E)-4-[[(1,5-dimethyl-3-oxo-2-phenyl-4-pyrazolyl)amino]methylidene]-2-methylisoquinoline-1,3-dione], with greater than 300 µM; and `COc1ccc(OC)c(N2C(=O)NC(=O)C(=Cc3c[nH]c4ccccc34)C2=O)c1` [(5E)-1-(2,5-dimethoxyphenyl)-5-(1H-indol-3-ylmethylene)pyrimidine-2,4,6(1H,3H,5H)-trione], with greater than 300 µM; and `O=C1NC(=O)N(Cc2ccccc2Cl)C(=O)C1=CNc1ccc(F)cc1` [(5E)-1-(2-chlorobenzyl)-5-[(4-fluoroanilino)methylene]barbituric acid], with greater than 300 µM. To `Cc1c(NC=C2C(=O)NC(=O)N(Cc3ccco3)C2=O)c(=O)n(-c2ccccc2)n1C` [(5E)-1-(2-furfuryl)-5-[[(3-keto-1,5-dimethyl-2-phenyl-3-pyrazolin-4-yl)amino]methylene]barbituric acid] belongs greater than 300 µM; to `C=c1c(C(=O)OC)c(O)c(=Cc2cccs2)n1-c1ccc(Cl)cc1` [(5E)-1-(4-chlorophenyl)-2-methyl-4-oxo-5-(thiophen-2-ylmethylidene)-3-pyrrolecarboxylic acid methyl ester], greater than 300 µM.
